IC50 data for 23 molecules are collected here from US20090233943A9, “NEW COMPOUNDS 835” (priority 2007, published 2009).

The target in this test is T1, human β-Secretase (soluble part, AA 1-AA 460, sBACE-Fc) (Homo sapiens, UniProt P56817).
T1 construct: The soluble part of the human β-Secretase (AA 1-AA 460) was cloned; made in house
As to the kind of experiment: TR-FRET assay (β-secretase enzyme). The test is classed as biochemical. As to the method: The enzyme used in the IGEN Cleavage-, Fluorescent-, TR-FRET- and BiaCore assays is described as follows:
The soluble part of the human β-Secretase (AA 1-AA 460) was cloned into the ASP2-Fc10-1-IRES-GFP-neoK mammalian expression vector. The gene was fused to the Fc domain of IgG1 (affinity tag) and stably cloned into SEEK 293 cells. Purified sBACE-Fc is stored in Tris buffer, pH 9.2 and has a purity of 95%.
Enzyme was diluted to 6 μg/mL and the substrate (Europium)[…](Qsy7) to 200 nM in reaction buffer (NaAcetate, chaps, triton x-100, EDTA pH 4.5). Compounds were diluted to the desired concentration in dimethyl sulfoxide (final dimethyl sulfoxide concentration in assay is 5%). […] Enzyme (9 μL) and 1 μL of compound in dimethyl sulfoxide was added to the plate, mixed and pre-incubated for 10 min. Substrate (10 μL) was added and the reaction proceeded in the dark for 15 min at RT. The reaction was stopped with the addition of 7 μL NaAcetate, pH 9. The fluorescence of the product was measured on a Victor II plate reader with an excitation wavelength of 340 nm and an emission wavelength of 615 nm. […] The dimethyl sulfoxide control defined the 100% activity level and 0% activity was defined by exclusion of the enzyme (using reaction buffer instead).

Counter-ions that a name gives are not always drawn.

T1 sequence (P56817 22-460): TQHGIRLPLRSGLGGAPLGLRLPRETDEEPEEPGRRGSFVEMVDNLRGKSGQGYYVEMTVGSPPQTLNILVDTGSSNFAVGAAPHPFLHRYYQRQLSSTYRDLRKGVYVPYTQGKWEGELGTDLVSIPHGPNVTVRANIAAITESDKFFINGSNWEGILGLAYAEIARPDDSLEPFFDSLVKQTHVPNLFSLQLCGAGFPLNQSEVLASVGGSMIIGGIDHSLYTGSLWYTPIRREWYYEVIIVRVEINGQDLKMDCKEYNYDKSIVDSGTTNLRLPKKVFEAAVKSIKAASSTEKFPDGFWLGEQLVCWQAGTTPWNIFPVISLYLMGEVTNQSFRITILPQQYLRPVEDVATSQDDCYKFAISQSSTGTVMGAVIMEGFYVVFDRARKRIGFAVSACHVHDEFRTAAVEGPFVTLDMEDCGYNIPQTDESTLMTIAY

For orientation: IC50 means the concentration at which inhibition is half-maximal. Low values mean greater potency, high ones weaker potency. For `COc1cncc(-c2cc(C3(c4ccc(S(F)(F)(F)(F)F)cc4)N=C(N)N(C)C3=O)ccc2F)c1` (single isomer, unassigned) [26 isomer 1], inhibition was half-maximal at 13 nM (IC50).
In the case of `COc1cncc(-c2cc(C3(c4ccc(S(F)(F)(F)(F)F)cc4)N=C(N)N(C)C3=O)ccc2F)c1` (single isomer, unassigned) [26 isomer 2], the 50% inhibitory concentration (IC50) worked out at 465 nM.
Regarding `COc1cccc(-c2cccc(C3(c4ccc(S(F)(F)(F)(F)F)cc4)N=C(N)N(C)C3=O)c2)c1F` (single isomer, unassigned) [37 isomer 1], half-maximal inhibition (IC50) required 49 nM.
On to `COc1cccc(-c2cccc(C3(c4ccc(S(F)(F)(F)(F)F)cc4)N=C(N)N(C)C3=O)c2)c1F` (single isomer, unassigned) [37 isomer 2], for which inhibition was half-maximal at 2630 nM (IC50).
For `COc1cccc(-c2cc(C3(c4ccc(N=S(C)(C)=O)cc4)N=C(N)N(C)C3=O)ccc2F)c1` (centres unmarked) [Example 5, 2-Amino-5-(4-{[dimethyl(oxido)-λ^4-sulfanylidene]amino}phenyl)-5-(6-fluoro-3′-methoxybiphenyl-3-yl)-3-methyl-3,5-dihydro-4H-imidazol-4-one hydrochloride], 756 nM corresponded to half-maximal inhibition (IC50).
`CN1C(=O)C(c2ccc(S(F)(F)(F)(F)F)cc2)(c2ccc(F)c(-c3cncnc3)c2)N=C1N` (centres unmarked) [Example 22, 2-Amino-5-(4-fluoro-3-pyrimidin-5-ylphenyl)-3-methyl-5-[4-(pentafluoro-λ^6-sulfanyl)phenyl]-3,5-dihydro-4H-imidazol-4-one] returned an IC50 of 49 nM.
For `CN1C(=O)C(c2ccc(S(F)(F)(F)(F)F)cc2)(c2ccc(F)c(-c3cncc(C#N)c3)c2)N=C1N` (centres unmarked) [Example 23, 5-(5-{2-Amino-1-methyl-5-oxo-4-[4-(pentafluoro-A-sulfanyl)phenyl]-4,5-dihydro-1H-imidazol-4-yl}-2-fluorophenyl)nicotinonitrile 0.25 acetate] the value was 101 nM; for `CN1C(=O)C(c2ccc(S(F)(F)(F)(F)F)cc2)(c2ccc(F)c(-c3cccnc3)c2)N=C1N` (centres unmarked) [Example 24, 2-Amino-5-(4-fluoro-3-pyridin-3-ylphenyl)-3-methyl-5-[4-(pentafluoro-λ^6-sulfanyl)phenyl]-3,5-dihydro-4H-imidazol-4-one], 53 nM; for `COc1cncc(-c2cc(C3(c4ccc(S(F)(F)(F)(F)F)cc4)N=C(N)N(C)C3=O)ccc2F)c1` (centres unmarked) [Example 25, 2-Amino-5-[4-fluoro-3-(5-methoxypyridin-3-yl)phenyl]-3-methyl-5-[4-(pentafluoro-λ^6-sulfanyl)phenyl]-3,5-dihydro-4H-imidazol-4-one], 30 nM.
In turn, `CN1C(=O)C(c2ccc(S(F)(F)(F)(F)F)cc2)(c2ccc(F)c(-c3cncc(F)c3)c2)N=C1N` (centres unmarked) [Example 27, 2-Amino-5-[4-fluoro-3-(5-fluoropyridin-3-yl)phenyl]-3-methyl-5-[4-(pentafluoro-λ^6-sulfanyl)phenyl]-3,5-dihydro-4H-imidazol-4-one 0.25 acetate] had an IC50 of 81 nM.
The molecule `CN1C(=O)C(c2ccc(S(F)(F)(F)(F)F)cc2)(c2ccc(F)c(-c3cccnc3F)c2)N=C1N` (centres unmarked) [Example 28, 2-amino-5-[4-fluoro-3-(2-fluoropyridin-3-yl)phenyl]-3-methyl-5-[4-(pentafluoro-λ^6-sulfanyl)phenyl]-3,5-dihydro-4H-imidazol-4-one 0.25 acetate] had an IC50 of 69 nM.
`CN1C(=O)C(c2ccc(S(F)(F)(F)(F)F)cc2)(c2ccc(F)c(-c3cnccc3C#N)c2)N=C1N` (centres unmarked) [Example 29, 3-(5-{2-amino-1-methyl-5-oxo-4-[4-(pentafluoro-λ^6-sulfanyl)phenyl]-4,5-dihydro-1H-imidazol-4-yl}-2-fluorophenyl)isonicotinonitrile 0.25 acetate]: the IC50 was 81 nM.
For the molecule `CN1C(=O)C(c2ccc(S(F)(F)(F)(F)F)cc2)(c2ccc(F)c(-c3cnccn3)c2)N=C1N` (centres unmarked) [Example 30, 2-amino-5-(4-fluoro-3-pyrazin-2-ylphenyl)-3-methyl-5-[4-(pentafluoro-λ^6-sulfanyl)phenyl]-3,5-dihydro-4H-imidazol-4-one 0.75 acetate], the 50% inhibitory concentration (IC50) amounted to 124 nM.
Regarding `CN1C(=O)C(c2ccc(S(F)(F)(F)(F)F)cc2)(c2cccc(-c3cccnc3F)c2)N=C1N` (centres unmarked) [Example 31, 2-amino-5-[3-(2-fluoropyridin-3-yl)phenyl]-3-methyl-5-[4-(pentafluoro-λ^6-sulfanyl)phenyl]-3,5-dihydro-4H-imidazol-4-one], the IC50 stood at 83 nM.
With `CN1C(=O)C(c2ccc(S(F)(F)(F)(F)F)cc2)(c2cccc(-c3cncnc3)c2)N=C1N` (centres unmarked) [Example 32, 2-amino-3-methyl-5-[4-(pentafluoro-λ^6-sulfanyl)phenyl]-5-(3-pyrimidin-5-ylphenyl)-3,5-dihydro-4H-imidazol-4-one], it took 55 nM to reach half-maximal inhibition (IC50).
The molecule `CN1C(=O)C(c2ccc(S(F)(F)(F)(F)F)cc2)(c2cccc(-c3cccnc3)c2)N=C1N` (centres unmarked) [Example 33, 2-amino-3-methyl-5-[4-(pentafluoro-λ^6-sulfanyl)phenyl]-5-(3-pyridin-3-ylphenyl)-3,5-dihydro-4H-imidazol-4-one] came in with an IC50 of 52 nM.
Regarding `CN1C(=O)C(c2ccc(S(F)(F)(F)(F)F)cc2)(c2cccc(-c3cnccc3C#N)c2)N=C1N` (centres unmarked) [Example 34, 3-(3-{2-amino-1-methyl-5-oxo-4-[4-(pentafluoro-λ^6-sulfanyl)phenyl]-4,5-dihydro-1H-imidazol-4-yl}phenyl)pyridine-4-carbonitrile], the IC50 amounted to 467 nM.
As to `CN1C(=O)C(c2ccc(S(F)(F)(F)(F)F)cc2)(c2cccc(-c3cncc(F)c3)c2)N=C1N` (centres unmarked) [Example 35, 2-amino-5-[3-(5-fluoropyridin-3-yl)phenyl]-3-methyl-5-[4-(pentafluoro-λ^6 sulfanyl)phenyl]-3,5-dihydro-4H-imidazol-4-one], the midpoint of inhibition, the IC50, lay at 68 nM.
For `CN1C(=O)C(c2ccc(S(F)(F)(F)(F)F)cc2)(c2cccc(-c3cnccn3)c2)N=C1N` (centres unmarked) [Example 36, 2-amino-3-methyl-5-[4-(pentafluoro-λ^6-sulfanyl)phenyl]-5-(3-pyrazin-2-ylphenyl)-3,5-dihydro-4H-imidazol-4-one] the value was 56 nM; for `COc1ccc(F)c(-c2cccc(C3(c4ccc(S(F)(F)(F)(F)F)cc4)N=C(N)N(C)C3=O)c2)c1` (centres unmarked) [Example 38, 2-amino-5-(2′-fluoro-5′-methoxybiphenyl-3-yl)-3-methyl-5-[4-(pentafluoro-λ^6 sulfanyl)phenyl]-3,5-dihydro-4H-imidazol-4-one], 71 nM.
For the molecule `CN1C(=O)C(c2ccc(S(F)(F)(F)(F)F)cc2)(c2cccc(-c3cc(C#N)ccc3F)c2)N=C1N` (centres unmarked) [Example 39, 2-amino-5-(2′-fluoro-5′-carbonitrilebiphenyl-3-yl)-3-methyl-5-[4-(pentafluoro-λ^6-sulfanyl)phenyl]-3,5-dihydro-4H-imidazol-4-one], the IC50 turned out to be 356 nM.
Then `COc1cccc(-c2cccc(C3(c4ccc(S(F)(F)(F)(F)F)cc4)N=C(N)N(C)C3=O)c2)c1` (centres unmarked) [Example 40, 2-amino-5-(3′-methoxybiphenyl-3-yl)-3-methyl-5-[4-(pentafluoro-λ^6-sulfanyl)phenyl]-3,5-dihydro-4H-imidazol-4-one], with 81 nM; and `CN1C(=O)C(c2ccc(S(F)(F)(F)(F)F)cc2)(c2cccc(-c3cccc(C#N)c3)c2)N=C1N` (centres unmarked) [Example 41, 3′-{2-amino-1-methyl-5-oxo-4-[4-(pentafluoro-λ^6-sulfanyl)phenyl]-4,5-dihydro-1H-imidazol-4-yl}biphenyl-3-carbonitrile], with 143 nM.
